# Measured values: patent US20250228239A1, “MOLECULES HAVING PESTICIDAL UTILITY, AND INTERMEDIATES, COMPOSITIONS, AND PROCESSES, RELATED THERETO” (priority 2024, published 2025)
# Assays:
# Type in all cases: in vivo
# [1] = system: Yellow Fever Mosquito (Aedes aegypti, AEDSAE); details: Table ABC: Biological Results; species YFM
# Outline: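 Rating-scale grades reflect larval mortality scored per well after 3 days at room temperature under non-evaporative lids. Larvae (~1 day old, hatched overnight in liver-powder water) were added to six daughter plates per compound, prepared from a 4000 ppm DMSO stock diluted in 90:10 water/acetone.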
# [2] = system: Beet Armyworm (Spodoptera exigua, LAPHEG); experiment: Bioassays on Beet Armyworm (BAW), 128-well diet tray assay; details: Spodoptera exigua; Table ABC: Biological Results; species BAW; read-out: BAW
# Outline: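 Diet-overlay assay: 50 μg/cm^2 compound applied in 90:10 acetone-water to artificial diet, allowed to dry, then infested with 1–5 L2 larvae/well; 8 wells/compound; covered, vented; 25° C., 14:10 L:D, 5–7 d; % mortality per well, averaged.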
# [3] = system: Cabbage Looper (Trichoplusia ni, TRIPNI); experiment: Bioassays on Cabbage Looper (CL), 128-well diet tray assay; details: Trichoplusia ni; Table ABC: Biological Results; species CL; read-out: CL
# Outline: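 Each of eight wells receives artificial diet treated at 50 μg/cm^2 with the test molecule, then one to five second-instar larvae. Incubation runs five to seven days at 25° C with a 14:10 light-dark cycle under vented covers. Mortality is scored per well as a percentage and averaged.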
SMILES,YFM [1],pest or weed control at 50 µg/cm2 [2],pest or weed control at 50 µg/cm2 [3]
"COCCNc1ccc(NC(=O)c2cc(NC(=O)[C@H]3[C@H](c4cc(Cl)cc(Cl)c4)C3(Cl)Cl)ccc2Cl)c(C)c1 (relative stereo) [F1162, trans-2-Chloro-5-(2,2-dichloro-3-(3,5-dichlorophenyl)cyclopropane-1-carboxamido)-N-(4-((2-methoxyethyl)amino)-2-methylphenyl)benzamide]",A (80–100),50 to 100%,50 to 100%
"O=C(Nc1ccc(F)cc1F)c1cc(NC(=O)[C@H]2[C@H](c3cc(F)c(Cl)c(C(F)(F)F)c3)C2(Cl)Cl)ccc1Cl (relative stereo) [F1163, trans-2-Chloro-5-(2,2-dichloro-3-(4-chloro-3-fluoro-5-(trifluoromethyl)phenyl)cyclopropane-1-carboxamido)-N-(2,4-difluorophenyl)benzamide]",A (80–100),50 to 100%,50 to 100%
"O=C(Nc1ccc(F)cc1F)c1cc(NC(=O)[C@H]2[C@@H](c3cc(F)c(Cl)c(C(F)(F)F)c3)C2(Cl)Cl)ccc1Cl (relative stereo) [F1164, cis-2-Chloro-5-(2,2-dichloro-3-(4-chloro-3-fluoro-5-(trifluoromethyl)phenyl)cyclopropane-1-carboxamido)-N-(2,4-difluorophenyl)benzamide]",A (80–100),50 to 100%,50 to 100%
"Cc1cc(NCc2ccc([N+](=O)[O-])cc2)ccc1NC(=O)c1cc(NC(=O)[C@H]2[C@H](c3cc(Cl)cc(Cl)c3)C2(Cl)Cl)ccc1Cl (relative stereo) [F1166, trans-2-Chloro-5-(2,2-dichloro-3-(3,5-dichlorophenyl)cyclopropane-1-carboxamido)-N-(2-methyl-4-((4-nitrobenzyl)amino)phenyl)benzamide]",A (80–100),50 to 100%,50 to 100%
"Nc1c(F)ccc(NC(=O)c2cc(NC(=O)[C@H]3[C@H](c4cc(F)c(Cl)c(C(F)(F)F)c4)C3(Cl)Cl)ccc2Cl)c1F (relative stereo) [F1167, trans-N-(3-Amino-2,4-difluorophenyl)-2-chloro-5-(2,2-dichloro-3-(4-chloro-3-fluoro-5-(trifluoromethyl)phenyl)cyclopropane-1-carboxamido)benzamide]",A (80–100),50 to 100%,50 to 100%
"O=C(Nc1ccc(F)cc1F)c1cc(NC(=O)[C@H]2[C@H](c3cc(Cl)c(F)c(Cl)c3)C2(Cl)Cl)ccc1Cl (relative stereo) [F1172, trans-2-Chloro-5-(2,2-dichloro-3-(3,5-dichloro-4-fluorophenyl)cyclopropane-1-carboxamido)-N-(2,4-difluorophenyl)benzamide]",A (80–100),50 to 100%,50 to 100%
"O=C(Nc1ccc(F)cc1F)c1cc(NC(=O)[C@H]2[C@@H](c3cc(Cl)c(F)c(Cl)c3)C2(Cl)Cl)ccc1Cl (relative stereo) [F1173, cis-2-Chloro-5-(2,2-dichloro-3-(3,5-dichloro-4-fluorophenyl)cyclopropane-1-carboxamido)-N-(2,4-difluorophenyl)benzamide]",A (80–100),50 to 100%,50 to 100%
"Cc1cc(NCc2ccccc2)ccc1NC(=O)c1cc(NC(=O)[C@H]2[C@H](c3cc(Cl)cc(Cl)c3)C2(Cl)Cl)ccc1Cl (relative stereo) [F1176, trans-N-(4-(Benzylamino)-2-methylphenyl)-2-chloro-5-(2,2-dichloro-3-(3,5-dichlorophenyl)cyclopropane-1-carboxamido)benzamide]",A (80–100),50 to 100%,50 to 100%
"Nc1c(F)ccc(NC(=O)c2cc(NC(=O)[C@H]3[C@H](c4cc(Cl)c(F)c(Cl)c4)C3(Cl)Cl)ccc2Cl)c1F (relative stereo) [F1181, trans-N-(3-Amino-2,4-difluorophenyl)-2-chloro-5-(2,2-dichloro-3-(3,5-dichloro-4-fluorophenyl)cyclopropane-1-carboxamido)benzamide]",A (80–100),50 to 100%,50 to 100%
"Nc1c(F)ccc(NC(=O)c2cc(NC(=O)[C@H]3[C@@H](c4cc(Cl)c(F)c(Cl)c4)C3(Cl)Cl)ccc2Cl)c1F (relative stereo) [F1182, cis-N-(3-Amino-2,4-difluorophenyl)-2-chloro-5-(2,2-dichloro-3-(3,5-dichloro-4-fluorophenyl)cyclopropane-1-carboxamido)benzamide]",A (80–100),50 to 100%,50 to 100%
"Cc1cc(NC(=O)[C@H]2[C@H](c3ccc(F)c(Cl)c3)C2(Cl)Cl)cc(C(=O)Nc2ccccc2)c1Cl (relative stereo) [F1183, trans-2-Chloro-5-(2,2-dichloro-3-(3-chloro-4-fluorophenyl)cyclopropane-1-carboxamido)-3-methyl-N-phenylbenzamide]",A (80–100),50 to 100%,50 to 100%
"Cc1cc(NC(=O)[C@H]2[C@H](c3ccc(F)c(Cl)c3)C2(Cl)Cl)cc(C(=O)Nc2ccc(F)cc2)c1Cl (relative stereo) [F1184, trans-2-Chloro-5-(2,2-dichloro-3-(3-chloro-4-fluorophenyl)cyclopropane-1-carboxamido)-N-(4-fluorophenyl)-3-methylbenzamide]",A (80–100),50 to 100%,50 to 100%
"CC(=O)Nc1ccc(NC(=O)c2cc(NC(=O)[C@H]3[C@H](c4ccc(F)c(Cl)c4)C3(Cl)Cl)cc(C)c2Cl)cc1 (relative stereo) [F1186, trans-N-(4-Acetamidophenyl)-2-chloro-5-(2,2-dichloro-3-(3-chloro-4-fluorophenyl)cyclopropane-1-carboxamido)-3-methylbenzamide]",A (80–100),50 to 100%,50 to 100%
"Cc1c(Cl)cc(NC(=O)[C@H]2[C@H](c3ccc(F)c(Cl)c3)C2(Cl)Cl)cc1C(=O)Nc1ccccc1 (relative stereo) [F1188, trans-3-Chloro-5-(2,2-dichloro-3-(3-chloro-4-fluorophenyl)cyclopropane-1-carboxamido)-2-methyl-N-phenylbenzamide]",A (80–100),50 to 100%,50 to 100%
"Cc1c(Cl)cc(NC(=O)[C@H]2[C@H](c3ccc(F)c(Cl)c3)C2(Cl)Cl)cc1C(=O)Nc1ccc(F)cc1 (relative stereo) [F1189, trans-3-Chloro-5-(2,2-dichloro-3-(3-chloro-4-fluorophenyl)cyclopropane-1-carboxamido)-N-(4-fluorophenyl)-2-methylbenzamide]",A (80–100),50 to 100%,50 to 100%
"CC(=O)Nc1ccc(NC(=O)c2cc(NC(=O)[C@H]3[C@H](c4ccc(F)c(Cl)c4)C3(Cl)Cl)cc(Cl)c2C)cc1 (relative stereo) [F1191, trans-N-(4-Acetamidophenyl)-3-chloro-5-(2,2-dichloro-3-(3-chloro-4-fluorophenyl)cyclopropane-1-carboxamido)-2-methylbenzamide]",A (80–100),50 to 100%,50 to 100%
"O=C(Nc1ccccc1)c1cc(NC(=O)[C@H]2[C@H](c3ccc(F)c(Cl)c3)C2(Cl)Cl)cc(C(F)(F)F)c1Cl (relative stereo) [F1212, trans-2-Chloro-5-(2,2-dichloro-3-(3-chloro-4-fluorophenyl)cyclopropane-1-carboxamido)-N-phenyl-3-(trifluoromethyl)benzamide]",A (80–100),50 to 100%,50 to 100%
"O=C(Nc1ccc(F)cc1)c1cc(NC(=O)[C@H]2[C@H](c3ccc(F)c(Cl)c3)C2(Cl)Cl)cc(C(F)(F)F)c1Cl (relative stereo) [F1214, trans-2-Chloro-5-(2,2-dichloro-3-(3-chloro-4-fluorophenyl)cyclopropane-1-carboxamido)-N-(4-fluorophenyl)-3-(trifluoromethyl)benzamide]",A (80–100),50 to 100%,50 to 100%
"O=C(Nc1ccc(F)cc1F)c1cc(NC(=O)[C@H]2[C@H](c3ccc(F)c(Cl)c3)C2(Cl)Cl)cc(C(F)(F)F)c1Cl (relative stereo) [F1215, trans-2-Chloro-5-(2,2-dichloro-3-(3-chloro-4-fluorophenyl)cyclopropane-1-carboxamido)-N-(2,4-difluorophenyl)-3-(trifluoromethyl)benzamide]",A (80–100),50 to 100%,50 to 100%
"CC(=O)Nc1ccc(NC(=O)c2cc(NC(=O)[C@H]3[C@H](c4ccc(F)c(Cl)c4)C3(Cl)Cl)cc(C(F)(F)F)c2Cl)cc1 (relative stereo) [F1216, trans-N-(4-Acetamidophenyl)-2-chloro-5-(2,2-dichloro-3-(3-chloro-4-fluorophenyl)cyclopropane-1-carboxamido)-3-(trifluoromethyl)benzamide]",A (80–100),50 to 100%,50 to 100%
